{"source": "ChEMBL document CHEMBL4417631", "about": "“Oral peptide inhibitors of interleukin-23 receptor and their use to treat inflammatory bowel diseases” (2017)", "note": "Where a SMILES comes first, the peptide text is derived from it. [ ]: non-standard residue; d: D form. hLeu = CC(C)CC[C@H](N)C(=O)O", "data": [{"target": "T1, Interleukin-23 receptor (Homo sapiens, UniProt Q5VWK5)", "T1 sequence (Q5VWK5 whole entry)": "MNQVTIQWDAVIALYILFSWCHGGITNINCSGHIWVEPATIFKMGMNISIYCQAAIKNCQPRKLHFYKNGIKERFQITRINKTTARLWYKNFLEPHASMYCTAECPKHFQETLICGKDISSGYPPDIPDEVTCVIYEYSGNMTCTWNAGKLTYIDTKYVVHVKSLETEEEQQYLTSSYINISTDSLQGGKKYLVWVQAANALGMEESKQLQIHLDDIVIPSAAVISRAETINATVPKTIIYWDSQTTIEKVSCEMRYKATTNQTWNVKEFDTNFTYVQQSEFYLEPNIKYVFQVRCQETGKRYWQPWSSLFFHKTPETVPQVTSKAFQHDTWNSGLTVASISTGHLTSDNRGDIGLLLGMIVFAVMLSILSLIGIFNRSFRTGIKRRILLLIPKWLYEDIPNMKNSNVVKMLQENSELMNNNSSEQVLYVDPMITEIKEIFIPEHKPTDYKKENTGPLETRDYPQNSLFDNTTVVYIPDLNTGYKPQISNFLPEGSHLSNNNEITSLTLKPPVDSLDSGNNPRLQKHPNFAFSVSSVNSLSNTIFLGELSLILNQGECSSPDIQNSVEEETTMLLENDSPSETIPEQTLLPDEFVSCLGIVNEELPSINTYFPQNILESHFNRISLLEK", "experiment": "Inhibition of interleukin-23 binding to human interleukin-23 receptor incubated for 2 hrs by competitive binding ELISA", "units": {"IC50": "µM"}, "values": [{"compound": "CC(=O)N[C@@H](CS)C(=O)N[C@@H](CCC(N)=O)C(=O)N[C@H](C(=O)NCC(=O)N[C@@H](CCC(N)=O)C(=O)N[C@@H](CS)C(=O)N[C@@H](Cc1ccc(O)cc1)C(=O)N[C@@H](Cc1c[nH]c2ccccc12)C(=O)N[C@@H](CCC(C)C)C(=O)N[C@@H](CCC(=O)O)C(=O)N[C@@H](CC(N)=O)C(=O)NCC(N)=O)[C@@H](C)O", "note": "(Ac-CQTGQCYW[hLeu]ENG-NH2)", "IC50": "> 10"}, {"compound": "CC(=O)NC1CC/C=C\\CCCC(C(=O)N[C@@H](Cc2ccc(O)cc2)C(=O)N[C@@H](Cc2c[nH]c3ccccc23)C(=O)N[C@@H](CCCNC(=N)N)C(=O)N[C@@H](CCCCN)C(=O)N[C@@H](Cc2ccccc2)C(=O)NCC(=O)NCCOCC(=O)N[C@H](CCCCN)C(N)=O)NC(=O)[C@H](CCC(N)=O)NC(=O)[C@H](Cc2c[nH]c3ccccc23)NC(=O)[C@H]([C@@H](C)O)NC(=O)[C@H](CCCNC(=N)N)NC1=O", "note": "(stereo partly specified)", "IC50": "1 to 10"}, {"compound": "CC(=O)N[C@H](C(=O)N[C@@H](C)C(=O)N[C@@H](CC(=O)O)C(=O)N[C@@H](Cc1c[nH]c2ccccc12)C(=O)N[C@H](C(=O)N[C@@H](CS)C(=O)N[C@@H](Cc1ccc(O)cc1)C(=O)N[C@@H](Cc1c[nH]c2ccccc12)C(=O)N[C@@H](Cc1cnc[nH]1)C(=O)N[C@H](C(=O)N[C@@H](Cc1ccccc1)C(=O)NCC(N)=O)[C@@H](C)O)C(C)C)C(C)(C)S", "IC50": "1 to 10"}, {"compound": "CC(=O)N[C@H](C(=O)N[C@@H](CCC(N)=O)C(=O)N[C@H](C(=O)N[C@@H](Cc1c[nH]c2ccccc12)C(=O)N[C@@H](CCC(N)=O)C(=O)N[C@H](C(=O)N[C@@H](Cc1cc(F)cc(F)c1)C(=O)N[C@@H](Cc1ccc2ccccc2c1)C(=O)N[C@@](C)(CCCN)C(=O)N[C@@H](CCC(N)=O)C(=O)N[C@@H](CC(N)=O)C(=O)NCC(N)=O)C(C)(C)S)[C@@H](C)O)C(C)(C)S", "IC50": "0.1 to 1"}, {"compound": "C[C@@H](O)[C@H](NC(=O)[C@@H](NC(=O)[C@@H](N)CS)[C@@H](C)O)C(=O)N[C@@H](Cc1c[nH]c2ccccc12)C(=O)N[C@@H](CCCCN)C(=O)N[C@@H](CS)C(=O)N[C@@H](Cc1ccc(O)cc1)C(=O)N[C@@H](Cc1c[nH]c2ccccc12)C(=O)N[C@@H](Cc1cnc[nH]1)C(=O)N[C@@H](CCC(N)=O)C(=O)N[C@@H](Cc1ccc(O)cc1)C(=O)NCC(N)=O", "note": "(H-CTTWKCYWHQYG-NH2)", "IC50": "0.5 to 1"}, {"compound": "CC(C)[C@H](NC(=O)[C@H](Cc1cnc[nH]1)NC(=O)[C@H](Cc1c[nH]c2ccccc12)NC(=O)[C@H](Cc1ccc(O)cc1)NC(=O)[C@H](CS)NC(=O)[C@H](CCC(=O)O)NC(=O)[C@H](Cc1c[nH]c2ccccc12)NC(=O)[C@H](CC(N)=O)NC(=O)CNC(=O)[C@@H](N)CS)C(=O)N[C@@H](Cc1ccc(O)cc1)C(=O)NCC(N)=O", "note": "(H-CGNWECYWHVYG-NH2)", "IC50": "> 1"}, {"compound": "CC(=O)N[C@H]1CCSC[C@@H](C(=O)N[C@@H](Cc2ccc(C(N)=O)cc2)C(=O)N[C@@H](Cc2ccc3ccccc3c2)C(=O)NC(C)(C)C(=O)N[C@@H](CCC(=O)O)C(=O)N[C@@H](CC(N)=O)C(=O)NCC(N)=O)NC(=O)[C@H](CCC(N)=O)NC(=O)[C@H](Cc2c[nH]c3ccccc23)NC(=O)[C@H]([C@@H](C)O)NC(=O)[C@H](CCC(N)=O)NC1=O", "IC50": "0.1 to 1"}, {"compound": "CC(=O)N[C@@H](CS)C(=O)N[C@@H](C)C(=O)N[C@@H](CC(=O)O)C(=O)N[C@@H](Cc1c[nH]c2ccccc12)C(=O)N[C@H](C(=O)N[C@@H](CS)C(=O)N[C@@H](Cc1ccc(O)cc1)C(=O)NC1(C(=O)N[C@@H](Cc2cnc[nH]2)C(=O)N[C@H](C(=O)N[C@@H](Cc2ccccc2)C(=O)NCC(=O)NCCOCC(=O)N[C@H](CCCCN)C(N)=O)[C@@H](C)O)Cc2ccccc2C1)C(C)C", "IC50": "> 1"}, {"compound": "CC(=O)N[C@@H](CS)C(=O)N[C@@H](C)C(=O)N[C@@H](CC(=O)O)C(=O)N[C@@H](Cc1c[nH]c2ccccc12)C(=O)N[C@H](C(=O)N[C@@H](CS)C(=O)N[C@@H](Cc1ccc(O)cc1)C(=O)N[C@@H](Cc1c[nH]c2ccccc12)C(=O)N[C@@H](Cc1cnc[nH]1)C(=O)N[C@@H](Cc1ccccc1)C(=O)N[C@@H](Cc1cnc[nH]1)C(=O)N[C@@H](CCC(N)=O)C(=O)N[C@@H](CC(C)C)C(=O)N[C@@H](CCCNC(=N)N)C(=O)N[C@@H](CC(=O)O)C(=O)N[C@@H](C)C(N)=O)C(C)C", "note": "(Ac-CADWVCYWHFHQLRDA-NH2)", "IC50": "0.5 to 1"}, {"compound": "CC(=O)N[C@@H](CS)C(=O)N[C@@H](CCCNC(=N)N)C(=O)N[C@@H](CC(=O)O)C(=O)N[C@@H](Cc1c[nH]c2ccccc12)C(=O)N[C@@H](CCC(N)=O)C(=O)N[C@@H](CS)C(=O)N[C@@H](Cc1ccc(O)cc1)C(=O)N[C@@H](Cc1c[nH]c2ccccc12)C(=O)N(C)[C@@H](CCCNC(=N)N)C(=O)N[C@@H](CCCCN)C(=O)N[C@@H](Cc1ccccc1)C(=O)NCC(=O)NCCOCCC(=O)N[C@H](CCCCN)C(N)=O", "IC50": "> 1"}, {"compound": "CC(=O)N[C@H]1CCSC[C@@H](C(=O)N[C@@H](Cc2ccc(OCCN)cc2)C(=O)N[C@@H](Cc2ccc3ccccc3c2)C(=O)N[C@@](C)(CCCCN)C(=O)N[C@@H](CCC(=O)O)C(=O)N[C@@H](CC(N)=O)C(=O)NCC(N)=O)NC(=O)[C@H](CCC(N)=O)NC(=O)[C@@H]2Cc3ccccc3CN2C(=O)[C@H]([C@@H](C)O)NC(=O)[C@H](CCC(N)=O)NC1=O", "IC50": "> 3"}, {"compound": "CC(=O)N[C@H]1CCSC[C@@H](C(=O)N[C@@H](Cc2ccc(OCCN)cc2)C(=O)N[C@@H](Cc2ccc3ccccc3c2)C(=O)N[C@@](C)(CCCCN)C(=O)N[C@@H](CCC(=O)O)C(=O)N[C@@H](CC(N)=O)C(=O)NCC(N)=O)NC(=O)[C@H](CCC(N)=O)NC(=O)[C@@H]2Cc3c([nH]c4ccccc34)CN2C(=O)[C@H]([C@@H](C)O)NC(=O)[C@H](CCC(N)=O)NC1=O", "IC50": "0.1 to 1"}, {"compound": "CC(=O)N[C@@H](CS)C(=O)N[C@@H](CCC(N)=O)C(=O)N[C@H](C(=O)N[C@@H](Cc1c[nH]c2ccccc12)C(=O)N[C@@H](CCC(N)=O)C(=O)N[C@@H](CS)C(=O)N[C@@H](CCC(=O)O)C(=O)N[C@@H](Cc1c[nH]c2ccccc12)C(=O)N[C@@H](CCC(C)C)C(=O)N[C@@H](CCC(=O)O)C(=O)N[C@@H](CC(N)=O)C(=O)NCC(N)=O)[C@@H](C)O", "IC50": "> 30"}, {"compound": "CC(C)[C@H](NC(=O)[C@H](Cc1c[nH]c2ccccc12)NC(=O)[C@H](CC(=O)O)NC(=O)[C@H](C)NC(=O)[C@@H](N)CS)C(=O)N[C@@H](CS)C(=O)N[C@@H](Cc1ccc(O)cc1)C(=O)N[C@@H](Cc1c[nH]c2ccccc12)C(=O)N[C@@H](Cc1cnc[nH]1)C(=O)N[C@H](C(N)=O)[C@@H](C)O", "IC50": "> 1"}, {"compound": "CC(=O)N[C@H](CCCCN)C(=O)N[C@@H](CO)C(=O)N[C@@H](CS)C(=O)N[C@@H](C)C(=O)N[C@@H](CC(=O)O)C(=O)N[C@@H](Cc1c[nH]c2ccccc12)C(=O)N[C@H](C(=O)N[C@@H](CS)C(=O)N[C@@H](Cc1ccc(O)cc1)C(=O)N[C@@H](Cc1c[nH]c2ccccc12)C(=O)N[C@@H](Cc1cnc[nH]1)C(=O)N[C@H](C(=O)N[C@@H](Cc1ccccc1)C(=O)NCC(=O)O)[C@@H](C)O)C(C)C", "IC50": "> 1"}, {"compound": "CC(=O)N[C@@H](CS)C(=O)N[C@@H](CCC(N)=O)C(=O)N[C@H](C(=O)N[C@@H](Cc1c[nH]c2ccccc12)C(=O)N[C@@H](CCC(N)=O)C(=O)N[C@@H](CS)C(=O)N[C@@H](Cc1ccc(O)cc1)C(=O)N[C@@H](Cc1c[nH]c2ccccc12)C(=O)N[C@H](CCCNC(=N)N)C(=O)N[C@H](CCC(=O)O)C(=O)N[C@@H](CC(N)=O)C(=O)NCC(=O)NCCOCC(=O)N[C@H](CCCCN)C(N)=O)[C@@H](C)O", "IC50": "> 1"}, {"compound": "CC(C)[C@H](NC(=O)[C@@H]1Cc2ccccc2CN1C(=O)[C@H](CC(=O)O)NC(=O)[C@H](C)NC(=O)[C@@H](N)CS)C(=O)N[C@@H](CS)C(=O)N[C@@H](Cc1ccc(O)cc1)C(=O)N[C@@H](Cc1c[nH]c2ccccc12)C(=O)N[C@@H](Cc1cnc[nH]1)C(=O)N[C@H](C(=O)N[C@@H](Cc1ccccc1)C(=O)NCC(N)=O)[C@@H](C)O", "IC50": "> 1"}, {"compound": "CC(=O)N[C@H](CCCCN)C(=O)N[C@@H](CS)C(=O)N[C@@H](C)C(=O)N[C@@H](CC(=O)O)C(=O)N[C@@H](Cc1c[nH]c2ccccc12)C(=O)N[C@H](C(=O)N[C@@H](CS)C(=O)N[C@@H](Cc1ccc(O)cc1)C(=O)N[C@@H](Cc1c[nH]c2ccccc12)C(=O)N[C@@H](Cc1cnc[nH]1)C(=O)N[C@H](C(=O)N[C@@H](Cc1ccccc1)C(=O)NCC(=O)O)[C@@H](C)O)C(C)C", "IC50": "> 1"}, {"compound": "CC(C)[C@H](NC(=O)[C@H](Cc1c[nH]c2ccccc12)NC(=O)[C@H](CC(=O)O)NC(=O)[C@H](C)NC(=O)[C@@H](N)C(C)(C)S)C(=O)N[C@H](C(=O)N[C@@H](Cc1ccc(O)cc1)C(=O)N[C@@H](Cc1c[nH]c2ccccc12)C(=O)N[C@@H](Cc1cnc[nH]1)C(=O)N[C@H](C(=O)N[C@@H](Cc1ccccc1)C(=O)NCC(N)=O)[C@@H](C)O)C(C)(C)S", "IC50": "> 6"}, {"compound": "CC(=O)N[C@@H](CS)C(=O)N[C@@H](C)C(=O)N[C@@H](CC(=O)O)C(=O)N[C@@H](Cc1c[nH]c2ccccc12)C(=O)N[C@H](C(=O)N[C@@H](CS)C(=O)N[C@@H](Cc1ccc(O)cc1)C(=O)N[C@@H](Cc1c[nH]c2ccccc12)C(=O)N[C@@H](CCCCN)C(=O)N[C@H](C(=O)N[C@@H](Cc1ccccc1)C(=O)NCC(=O)O)[C@@H](C)O)C(C)C", "IC50": "> 1"}, {"compound": "CC(=O)N[C@@H](CS)C(=O)N[C@@H](CCC(N)=O)C(=O)N[C@H](C(=O)N[C@@H](Cc1c[nH]c2ccccc12)C(=O)N[C@@H](CCC(N)=O)C(=O)N[C@@H](CS)C(=O)N[C@@H](Cc1ccc(O)cc1)C(=O)N[C@@H](Cc1c[nH]c2ccccc12)C(=O)N(C)[C@@H](CCCNC(=N)N)C(=O)N[C@@H](CCC(=O)O)C(=O)N[C@@H](CC(N)=O)C(=O)NCC(=O)NCCOCC(=O)N[C@H](CCCCN)C(N)=O)[C@@H](C)O", "IC50": "> 1"}]}]}
